This passage reports IC50 results from patent US20230192705A1, “SHP2 INHIBITORS, COMPOSITIONS AND USES THEREOF” (Betta Pharmaceuticals Co., Ltd, priority 2020, published 2023).

Molecules are shown by their SMILES.

This assay deals with T1, SHP2 (Homo sapiens, UniProt Q06124).
T1 sequence (Q06124 1-593): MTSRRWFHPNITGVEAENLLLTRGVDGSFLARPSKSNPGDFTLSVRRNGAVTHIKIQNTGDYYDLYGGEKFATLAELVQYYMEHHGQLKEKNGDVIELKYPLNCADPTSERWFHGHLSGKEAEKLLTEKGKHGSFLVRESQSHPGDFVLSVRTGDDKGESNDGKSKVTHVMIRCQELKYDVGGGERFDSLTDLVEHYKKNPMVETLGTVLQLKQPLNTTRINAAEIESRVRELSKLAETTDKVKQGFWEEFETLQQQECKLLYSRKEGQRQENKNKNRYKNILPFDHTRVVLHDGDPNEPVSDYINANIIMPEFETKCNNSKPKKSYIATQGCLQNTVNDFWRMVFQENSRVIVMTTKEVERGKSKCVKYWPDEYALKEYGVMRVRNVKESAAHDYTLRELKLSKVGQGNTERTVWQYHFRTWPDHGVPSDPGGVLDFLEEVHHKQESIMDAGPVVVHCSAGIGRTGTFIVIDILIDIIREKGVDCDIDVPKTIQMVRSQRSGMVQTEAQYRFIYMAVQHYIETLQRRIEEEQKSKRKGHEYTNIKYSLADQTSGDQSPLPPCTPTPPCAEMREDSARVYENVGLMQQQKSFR
Kind of assay: SHP2 allosteric inhibitor enzyme activity assay (DiFMUP fluorescence). In kind it is biochemical. The conditions noted are these: class symbols. A digest of the protocol:
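SHP2 activated by 0.5 μM IRS1_pY1172(dPEG8)pY1222 peptide, 0.2 ng enzyme per well, 1 h at room temperature with compound (1 μM top, 3-fold series), then DiFMUP substrate 1 h. Buffer: 60 mM HEPES, 75 mM NaCl, 75 mM KCl, 0.05% BRIJ-35, 1 mM EDTA, 5 mM DTT. Fluorescence ex 340/em 450 nm; IC50 by variable-slope fit.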
A word on the IC50: it is the concentration at which inhibition is half-maximal. A low value points to greater potency in that assay. `N[C@@H]1c2ccccc2CC12CCN(c1nc3[nH]nc(C4(c5cccc6occc56)CC4)c3c(=O)[nH]1)CC2` [Example 80, (S)-6-(1-amino-1,3-dihydrospiro[indene-2,4′-piperidin]-1′-yl)-3-(1-(benzofuran-4-yl)cyclopropyl)-1,5-dihydro-4H-pyrazolo[3,4-d]pyrimidin-4-one]: the IC50 was no more than 20 nM.

Turning to `Cc1cccc(C2(c3n[nH]c4nc(N5CCC6(CC5)CO[C@@H](C)[C@H]6N)[nH]c(=O)c34)CC2)c1` [Example 301, 6-((3S,4S)-4-amino-3-methyl-2-oxa-8-azaspiro[4.5]decan-8-yl)-3-(1-(m-tolyl)cyclopropyl)-1,5-dihydro-4H-pyrazolo[3,4-d]pyrimidin-4-one], the concentration for half-maximal inhibition (IC50) fell in the range of 20 to 60 nM.

`N[C@@H]1c2ccccc2CC12CCN(c1nc3[nH]nc(C4(c5ccccc5)CCCC4)c3c(=O)[nH]1)CC2` [Example 97, (S)-6-(1-amino-1,3-dihydrospiro[indene-2,4′-piperidin]-1′-yl)-3-(1-phenylcyclopentyl)-1,5-dihydro-4H-pyrazolo[3,4-d]pyrimidin-4-one] had an IC50 of 20 to 60 nM.

Molecule `N[C@@H]1c2ccccc2CC12CCN(c1nc3[nH]nc(C4=CCCc5ncc(C(F)(F)F)cc54)c3c(=O)[nH]1)CC2` [Example 138, (S)-6-(1-amino-1,3-dihydrospiro[indene-2,4′-piperidin]-1′-yl)-3-(3-(trifluoromethyl)-7,8-dihydroquinolin-5-yl)-1,5-dihydro-4H-pyrazolo[3,4-d]pyrimidin-4-one] displayed a half-inhibitory concentration (IC50) of 20 to 60 nM.

Consider `CC1(C)C=C(c2n[nH]c3nc(N4CCC5(CC4)Cc4ccccc4[C@H]5N)[nH]c(=O)c23)c2cn(CC(F)(F)F)nc2C1` [Example 154, (S)-6-(1-amino-1,3-dihydrospiro[indene-2,4′-piperidin]-1′-yl)-3-(6,6-dimethyl-2-(2,2,2-trifluoroethyl)-6,7-dihydro-2H-indazol-4-yl)-1,5-dihydro-4H-pyrazolo[3,4-d]pyrimidin-4-one], for which the 50% inhibitory concentration (IC50) was no more than 20 nM.

`Cc1cnc(C2(c3n[nH]c4nc(N5CCC6(CC5)Cc5ccccc5[C@H]6N)[nH]c(=O)c34)CC2)o1` [Example 244, (S)-6-(1-amino-1,3-dihydrospiro[indene-2,4′-piperidin]-1′-yl)-3-(1-(5-methyloxazol-2-yl)cyclopropyl)-1,5-dihydro-4H-pyrazolo[3,4-d]pyrimidin-4-one] yielded an IC50 of no more than 20 nM.

For `N[C@@H]1c2ccccc2CC12CCN(c1nc3[nH]nc(C4(c5nc6ccccc6[nH]5)CC4)c3c(=O)[nH]1)CC2` [Example 251, (S)-3-(1-(1H-benzo[d]imidazol-2-yl)cyclopropyl)-6-(1-amino-1,3-dihydrospiro[indene-2,4′-piperidin]-1′-yl)-1,5-dihydro-4H-pyrazolo[3,4-d]pyrimidin-4-one], the half-maximal inhibitory concentration (IC50) was in the range of 20 to 60 nM.

Consider `Cn1cc2c(n1)CCC=C2c1n[nH]c2nc(N3CCC4(CC3)Cc3ccccc3[C@H]4N)[nH]c(=O)c12` [Example 121, (S)-6-(1-amino-1,3-dihydrospiro[indene-2,4′-piperidin]-1′-yl)-3-(2-methyl-6,7-dihydro-2H-indazol-4-yl)-1,5-dihydro-4H-pyrazolo[3,4-d]pyrimidin-4-one], for which the IC50 is no more than 20 nM.

In turn, `CSc1cccc(C2(c3n[nH]c4nc(N5CCC6(CC5)Cc5ccccc5[C@H]6N)[nH]c(=O)c34)CC2)c1` [Example 225, (S)-6-(1-amino-1,3-dihydrospiro[indene-2,4′-piperidin]-1′-yl)-3-(1-(3-(methylthio)phenyl)cyclopropyl)-1,5-dihydro-4H-pyrazolo[3,4-d]pyrimidin-4-one] had an IC50 of no more than 20 nM.

With `C[C@@H]1OCC2(CCN(c3nc4[nH]nc(C5(c6ccncn6)CC5)c4c(=O)[nH]3)CC2)[C@@H]1N` [Example 273, 6-((3S,4S)-4-amino-3-methyl-2-oxa-8-azaspiro[4.5]decan-8-yl)-3-(1-(pyrimidin-4-yl)cyclopropyl)-1,5-dihydro-4H-pyrazolo[3,4-d]pyrimidin-4-one], the half-maximal inhibitory concentration (IC50) fell in the range of 20 to 60 nM.

Take `N[C@@H]1c2ccccc2CC12CCN(c1nc3[nH]nc(C4(c5ccccc5)CCCCC4)c3c(=O)[nH]1)CC2` [Example 99, (S)-6-(1-amino-1,3-dihydrospiro[indene-2,4′-piperidin]-1′-yl)-3-(1-phenylcyclohexyl)-1,5-dihydro-4H-pyrazolo[3,4-d]pyrimidin-4-one]: the 50% inhibitory concentration (IC50) was 20 to 60 nM.

As to `CC1(C)C=C(c2n[nH]c3nc(N4CCC5(CC4)Cc4ccccc4[C@H]5N)[nH]c(=O)c23)c2ccc(Cl)nc2C1` [Example 161, (S)-6-(1-amino-1,3-dihydrospiro[indene-2,4′-piperidin]-1′-yl)-3-(2-chloro-7,7-dimethyl-7,8-dihydroquinolin-5-yl)-1,5-dihydro-4H-pyrazolo[3,4-d]pyrimidin-4-one], the IC50 was no more than 20 nM.

In turn, `CC1(C)C=C(c2n[nH]c3nc(N4CCC5(CC4)Cc4ccccc4[C@H]5N)[nH]c(=O)c23)c2cnn(C3CC3)c2C1` [Example 152, (S)-6-(1-amino-1,3-dihydrospiro[indene-2,4′-piperidin]-1′-yl)-3-(1-cyclopropyl-6,6-dimethyl-6,7-dihydro-1H-indazol-4-yl)-1,5-dihydro-4H-pyrazolo[3,4-d]pyrimidin-4-one] registered a half-inhibitory concentration (IC50) of 20 to 60 nM.

In turn, `N[C@@H]1c2ccccc2CC12CCN(c1nc3[nH]nc(C4(c5ccccc5)CCOC4)c3c(=O)[nH]1)CC2` (stereo partly drawn) [Example 98, 6-((S)-1-amino-1,3-dihydrospiro[indene-2,4′-piperidin]-1′-yl)-3-(3-phenyltetrahydrofuran-3-yl)-1,5-dihydro-4H-pyrazolo[3,4-d]pyrimidin-4-one] came in with an IC50 of 20 to 60 nM.

Turning to `C[C@@H]1OCC2(CCN(c3ncc(C4(c5ccccc5)CC4)nc3CO)CC2)[C@@H]1N` [Example 260, (3-((3S,4S)-4-amino-3-methyl-2-oxa-8-azaspiro[4.5]decan-8-yl)-6-(1-phenylcyclopropyl)pyrazin-2-yl)methanol], the 50% inhibitory concentration (IC50) is greater than 60 nM.

Molecule `N[C@@H]1c2ccccc2CC12CCN(c1nc3[nH]nc(C4(c5ccc(Cl)nn5)CC4)c3c(=O)[nH]1)CC2` [Example 69, (S)-6-(1-amino-1,3-dihydrospiro[indene-2,4′-piperidin]-1′-yl)-3-(1-(6-chloropyridazin-3-yl)cyclopropyl)-1,5-dihydro-4H-pyrazolo[3,4-d]pyrimidin-4-one] displayed an IC50 of 20 to 60 nM.

As for `N[C@@H]1c2ccccc2CC12CCN(c1nc3[nH]nc(C4(c5ccncc5)CC4)c3c(=O)[nH]1)CC2` [Example 219, (S)-6-(1-amino-1,3-dihydrospiro[indene-2,4′-piperidin]-1′-yl)-3-(1-(pyridin-4-yl)cyclopropyl)-1,5-dihydro-4H-pyrazolo[3,4-d]pyrimidin-4-one], the IC50 is no more than 20 nM.

As to `N[C@@H]1c2ccccc2CC12CCN(c1nc3[nH]nc(C4(c5c[nH]nn5)CC4)c3c(=O)[nH]1)CC2` [Example 253, (S)-3-(1-(1H-1,2,3-triazol-4-yl)cyclopropyl)-6-(1-amino-1,3-dihydrospiro[indene-2,4′-piperidin]-1′-yl)-1,5-dihydro-4H-pyrazolo[3,4-d]pyrimidin-4-one], the concentration for half-maximal inhibition (IC50) is no more than 20 nM.

`C[C@@H]1OCC2(CCN(c3nc4[nH]nc(C5(c6cccc(Br)c6)CC5)c4c(=O)[nH]3)CC2)[C@@H]1N` [Example 317, 6-((3S,4S)-4-amino-3-methyl-2-oxa-8-azaspiro[4.5]decan-8-yl)-3-(1-(3-bromophenyl)cyclopropyl)-1,5-dihydro-4H-pyrazolo[3,4-d]pyrimidin-4-one] displayed an IC50 of 20 to 60 nM.

Turning to `CN1c2ccccc2C(c2n[nH]c3nc(N4CCC5(CC4)Cc4ccccc4[C@H]5N)[nH]c(=O)c23)=CS1(=O)=O` [Example 184, (S)-6-(1-amino-1,3-dihydrospiro[indene-2,4′-piperidin]-1′-yl)-3-(1-methyl-2,2-dioxido-1H-benzo[c][1,2]thiazin-4-yl)-1,5-dihydro-4H-pyrazolo[3,4-d]pyrimidin-4-one], the 50% inhibitory concentration (IC50) was no more than 20 nM.

In turn, `N[C@@H]1c2ccccc2CC12CCN(c1nc3[nH]nc(C4(c5ccnc(N6CCOCC6)c5)CC4)c3c(=O)[nH]1)CC2` [Example 31, (S)-6-(1-amino-1,3-dihydrospiro[indene-2,4′-piperidin]-1′-yl)-3-(1-(2-morpholinopyridin-4-yl)cyclopropyl)-1,5-dihydro-4H-pyrazolo[3,4-d]pyrimidin-4-one] displayed an IC50 of 20 to 60 nM.

For `N[C@@H]1c2ccccc2CC12CCN(c1nc3[nH]nc(C4(c5ccnc(OC(F)F)c5)CC4)c3c(=O)[nH]1)CC2` [Example 53, (S)-6-(1-amino-1,3-dihydrospiro[indene-2,4′-piperidin]-1′-yl)-3-(1-(2-(difluoromethoxy)pyridin-4-yl)cyclopropyl)-1,5-dihydro-4H-pyrazolo[3,4-d]pyrimidin-4-one], the IC50 was no more than 20 nM.

Molecule `CC1(C)C=C(c2n[nH]c3nc(N4CCC5(CC4)Cc4ccccc4[C@H]5N)[nH]c(=O)c23)c2cnc(C(F)(F)F)nc2C1` [Example 146, (S)-6-(l-amino-1,3-dihydrospiro[indene-2,4'-piperidin]-1′-yl)-3-(7,7-dimethyl-2-(trifluoromethyl)-7,8-dihydroquinazolin-5-yl)-1,5-dihydro-4H-pyrazolo[3,4-d]pyrimidin-4-one] came in with a half-maximal inhibitory concentration (IC50) of no more than 20 nM.
